# Patent publication US9012651B2, “TRPV3 modulators” (AbbVie Inc., priority 2011, dated 2015)
# Target: human TRPV3 receptors (Homo sapiens (Human), UniProt Q8NET8)
# Assay: Calcium flux assay (FLIPR TETRA), inhibition of the 2-APB response
# Type: cell-based
# Settings: recombinant HEK293 cells stably expressing TRPV3, Calcium-4 dye, 2-APB at its EC80
# Description: (i) In Vitro Methods-Calcium Flux Assays:
# Experiments were conducted using the FLIPR^TETRA®. On the day prior to the experiment, recombinant HEK293 cells that stably express human and mouse TRPV3 were removed from tissue culture flasks and plated in growth medium at 20,000 cells/well into black-walled clear-bottom 384-well Biocoat™ poly-D-lysine assay plates (BD Biosciences, Bedford, Mass.) using a Multidrop® dispenser (ThermoScientific, Waltham, Mass.). […] Cells were incubated for 90-120 minutes in the dark. Compounds were dissolved in DMSO to prepare a 10 mM stock solution. The intensity of the fluorescence was captured and digitally transferred to an interfaced PC. The peak increase in fluorescence over baseline (relative fluorescence units) was calculated and expressed as the percentage of the maximal 2-APB (2-aminoethoxyldiphenyl borate) response (in the absence of compound).
# Sequence of human TRPV3 receptors (Q8NET8 whole entry): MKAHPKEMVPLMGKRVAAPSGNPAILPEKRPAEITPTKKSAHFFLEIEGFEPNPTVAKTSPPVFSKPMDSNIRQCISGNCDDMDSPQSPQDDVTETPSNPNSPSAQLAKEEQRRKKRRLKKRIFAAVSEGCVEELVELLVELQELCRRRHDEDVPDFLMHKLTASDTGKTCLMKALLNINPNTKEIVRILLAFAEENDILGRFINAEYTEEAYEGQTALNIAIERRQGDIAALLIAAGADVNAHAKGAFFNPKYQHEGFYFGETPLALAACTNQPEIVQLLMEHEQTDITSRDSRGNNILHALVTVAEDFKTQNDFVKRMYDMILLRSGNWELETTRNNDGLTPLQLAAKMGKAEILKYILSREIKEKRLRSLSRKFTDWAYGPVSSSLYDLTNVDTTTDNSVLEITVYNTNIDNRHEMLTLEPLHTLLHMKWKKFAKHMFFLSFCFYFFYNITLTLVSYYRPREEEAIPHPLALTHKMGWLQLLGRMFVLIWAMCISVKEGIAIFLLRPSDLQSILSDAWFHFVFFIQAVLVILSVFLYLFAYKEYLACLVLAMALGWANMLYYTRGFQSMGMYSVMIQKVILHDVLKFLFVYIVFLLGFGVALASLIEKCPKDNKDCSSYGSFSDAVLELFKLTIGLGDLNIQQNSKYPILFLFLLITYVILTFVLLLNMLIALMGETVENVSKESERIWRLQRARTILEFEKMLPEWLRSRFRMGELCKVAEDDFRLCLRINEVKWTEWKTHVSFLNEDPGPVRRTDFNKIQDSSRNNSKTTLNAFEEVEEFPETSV
row,SMILES,IC50 [µM]
1,"OC[C@H](NCc1nc(-c2ccc(C(F)(F)F)cc2)ccc1F)C1CCCCC1 [Example 84, (2R)-2-cyclohexyl-2-[({3-fluoro-6-[4-(trifluoromethyl)phenyl]pyridin-2-yl}methyl)amino]ethanol]",0.7
2,"CC(C)(C)[C@H](CO)NCc1nc(-c2ccc(C(F)(F)F)cc2)ccc1F [Example 85, (2R)-2-((3-fluoro-6-(4-(trifluoromethyl)phenyl)pyridin-2-yl)methylamino)-3,3-dimethylbutan-1-ol]",0.52
3,"CC(O)C(C)NCc1nc(-c2ccc(C(F)(F)F)cc2)ccc1F (stereo not drawn) [Example 86, 3-[({3-fluoro-6-[4-(trifluoromethyl)phenyl]pyridin-2-yl}methyl)amino]butan-2-ol]",0.3
4,"CCC[C@H](CO)NCc1nc(-c2ccc(C(F)(F)F)nc2)ccc1F [Example 87, (2R)-2-({[5-fluoro-6′-(trifluoromethyl)-2,3′-bipyridin-6-yl]methyl}amino)pentan-1-ol]",3.1
5,"OC[C@H](NCc1nc(-c2ccc(C(F)(F)F)nc2)ccc1F)C1CCCCC1 [Example 88, (2R)-2-cyclohexyl-2-({[5-fluoro-6′-(trifluoromethyl)-2,3′-bipyridin-6-yl]methyl}amino)ethanol]",0.57
6,"CC(C)(C)[C@H](CO)NCc1nc(-c2ccc(C(F)(F)F)nc2)ccc1F [Example 89, (2R)-2-({[5-fluoro-6′-(trifluoromethyl)-2,3′-bipyridin-6-yl]methyl}amino)-3,3-dimethylbutan-1-ol]",0.51
7,"CC(O)C(C)NCc1nc(-c2ccc(C(F)(F)F)nc2)ccc1F (stereo not drawn) [Example 90, 3-({[5-fluoro-6′-(trifluoromethyl)-2,3′-bipyridin-6-yl]methyl}amino)butan-2-ol]",2.59
8,"CC(C)[C@H](CO)NCc1ccnc(-c2ccc(C(F)(F)F)cc2)n1 [Example 91, (2R)-3-methyl-2-[({2-[4-(trifluoromethyl)phenyl]pyrimidin-4-yl}methyl)amino]butan-1-ol]",> 20
9,"CC(C)[C@H](CO)NCc1nc(N2CCC(F)(F)CC2)ccc1F [Example 92, (2R)-2-({[6-(4,4-difluoropiperidin-1-yl)-3-fluoropyridin-2-yl]methyl}amino)-3-methylbutan-1-ol]",0.96
10,"CC(C)[C@H](CO)NCc1nc(N2Cc3ccc(F)cc3C2)ccc1F [Example 93, (2R)-2-({[3-fluoro-6-(5-fluoro-1,3-dihydro-2H-isoindol-2-yl)pyridin-2-yl]methyl}amino)-3-methylbutan-1-ol]",0.27
11,"CC(C)[C@H](CO)NCc1nc(N2Cc3cccc(F)c3C2)ccc1F [Example 94, (2R)-2-({[3-fluoro-6-(4-fluoro-1,3-dihydro-2H-isoindol-2-yl)pyridin-2-yl]methyl}amino)-3-methylbutan-1-ol]",0.12
12,"CC(C)[C@H](CO)NCc1nc(N2Cc3cccc(Cl)c3C2)ccc1F [Example 95, (2R)-2-({[6-(4-chloro-1,3-dihydro-2H-isoindol-2-yl)-3-fluoropyridin-2-yl]methyl}amino)-3-methylbutan-1-ol]",0.34
13,"CC(C)[C@H](CO)NCc1nc(N2Cc3ccc(C(F)(F)F)cc3C2)ccc1F [Example 96, (2R)-2-[({3-fluoro-6-[5-(trifluoromethyl)-1,3-dihydro-2H-isoindol-2-yl]pyridin-2-yl}methyl)amino]-3-methylbutan-1-ol]",0.33
14,"CC(C)[C@H](CO)NCc1nc(N2CCc3c(F)cccc3C2)ccc1F [Example 97, (2R)-2-({[3-fluoro-6-(5-fluoro-3,4-dihydroisoquinolin-2(1H)-yl)pyridin-2-yl]methyl}amino)-3-methylbutan-1-ol]",0.11
15,"CC(C)[C@H](CO)NCc1nc(N2CCc3ccc(F)cc3C2)ccc1F [Example 98, (2R)-2-({[3-fluoro-6-(7-fluoro-3,4-dihydroisoquinolin-2(1H)-yl)pyridin-2-yl]methyl}amino)-3-methylbutan-1-ol]",0.32
